Data reported in patent publication US7704995B2 (Exelixis, Inc., priority 2003, dated 2010).
Read-outs that look alike come from different tables or passages of the source.

Target: T1, Chk1 (Homo sapiens, UniProt O14757)
T1 construct: purchased Upstate Biotechnology
T1 sequence (O14757 1-476): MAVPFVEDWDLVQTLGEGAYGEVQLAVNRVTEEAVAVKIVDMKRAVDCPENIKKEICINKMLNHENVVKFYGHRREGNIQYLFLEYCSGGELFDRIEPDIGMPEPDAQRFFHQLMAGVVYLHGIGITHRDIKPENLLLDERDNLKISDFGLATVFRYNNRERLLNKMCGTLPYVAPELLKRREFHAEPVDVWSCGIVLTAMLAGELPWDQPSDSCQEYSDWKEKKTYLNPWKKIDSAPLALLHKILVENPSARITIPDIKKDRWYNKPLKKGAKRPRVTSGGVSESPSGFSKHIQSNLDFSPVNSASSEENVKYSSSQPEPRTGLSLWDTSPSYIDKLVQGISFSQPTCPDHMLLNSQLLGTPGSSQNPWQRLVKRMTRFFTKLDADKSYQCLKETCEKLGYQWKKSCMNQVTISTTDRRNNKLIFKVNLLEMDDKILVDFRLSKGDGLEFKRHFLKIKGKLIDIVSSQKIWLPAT
Assay: Chk1 kinase assay: incorporation of γ-33P ATP into immobilized myelin basic protein
Assay type: biochemical
Details: read-out: Chk1 IC50
Procedure, shortened: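 Read-out is scintillation counting of 33P incorporated into plate-bound myelin basic protein. Chk1 runs at 10 nM enzyme with 10 μM ATP, Chk2 at 20 nM with 30 μM ATP, each for 1 hour at room temperature. Duplicate points; IC50 taken as 50% activity reduction, Ki computed from IC50.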

[1] = Table 11, Chk1 only, class symbols A-D

Structure (SMILES) | IC50 | IC50 (Table 11, Chk1 only) | other results
CNC(=O)c1nc(-c2cccc(C(=O)N[C@@H]3C[C@H]3c3ccccc3)c2)cnc1N [Example 148, 3-amino-N-methyl-6-[3-({[(1R,2S)-2-phenylcyclopropyl]amino}carbonyl)phenyl]pyrazine-2-carboxamide] | 50 to 1000 nM |  | 
CNC(=O)c1nc(-c2cccc(C(=O)NCc3ccc(F)c(F)c3F)c2)cnc1N [Example 281, 3-amino-N-methyl-6-[3-({[(2,3,4-trifluorophenyl)methyl]amino}carbonyl)phenyl]pyrazine-2-carboxamide] | 50 to 1000 nM |  | 
NCc1cccc(-c2cnc(N)c(-c3nc([C@H]4CCCNC4)n[nH]3)n2)c1 [Example 923, 5-[3-(aminomethyl)phenyl]-3-{3-[(3S)-piperidin-3-yl]-1H-1,2,4-triazol-5-yl}pyrazin-2-amine] |  |  | IC50 [1]: < 50 nM
CNC(=O)c1nc(-c2cccc(NCc3ccccc3)c2)cnc1N [Example 372, 3-amino-N-methyl-6-{3-[(phenylmethyl)amino]phenyl}pyrazine-2-carboxamide] | 50 to 1000 nM |  | 
COc1cccc(-c2n[nH]c(-c3nc(-c4cccc(CN[C@H]5CCc6ccccc65)c4)cnc3N)n2)c1 [Example 584, 5-(3-{[(1S)-2,3-dihydro-1H-inden-1-ylamino]methyl}phenyl)-3-{3-[3-(methyloxy)phenyl]-1H-1,2,4-triazol-5-yl}pyrazin-2-amine] |  | 50 to 1000 nM | 
COc1ccc(CNC(=O)c2cccc(-c3cnc(N)c(C(=O)N[C@H]4CCCNC4)n3)c2)c(OC)c1 [Example 856, 3-amino-6-{3-[({[2,4-bis(methyloxy)phenyl]methyl}amino)carbonyl]phenyl}-N-[(3S)-piperidin-3-yl]pyrazine-2-carboxamide] |  |  | IC50 [1]: < 50 nM
CNC(=O)c1nc(-c2cccc(C(=O)NCc3ccccn3)c2)cnc1N [Example 121, 3-amino-N-methyl-6-(3-{[(pyridin-2-ylmethyl)amino]carbonyl}phenyl)pyrazine-2-carboxamide] | 50 to 1000 nM |  | 
Nc1ncc(-c2cccc(C(=O)NCc3ccc(F)cc3Cl)c2)nc1C(=O)N[C@H]1CCCNC1 [Example 1002, 3-amino-6-[3-({[(2-chloro-4-fluorophenyl)methyl]amino}carbonyl)phenyl]-N-[(3S)-piperidin-3-yl]pyrazine-2-carboxamide] |  |  | IC50 [1]: < 50 nM
Cn1nc(-c2nc(-c3cccc(C(=O)N[C@H]4CCc5ccccc54)c3)cnc2N)nc1C1CCCNC1 (stereo partly drawn) [Example 735, 3-(5-amino-6-(1-methyl-5-piperidin-3-yl-1H-1,2,4-triazol-3-yl)pyrazin-2-yl]-N-[(1S)-2,3-dihydro-1H-inden-1-yl]benzamide] |  | 50 to 1000 nM | 
Nc1ncc(-c2cccc(C(=O)NCc3c(F)cccc3Cl)c2)nc1-c1nc([C@H]2CCCNC2)n[nH]1 [Example 828, 3-(5-amino-6-{3-[(3S)-piperidin-3-yl]-1H-1,2,4-triazol-5-yl}pyrazin-2-yl)-N-[(2-chloro-6-fluorophenyl)methyl]benzamide] |  |  | IC50 [1]: 50 to 1000 nM
Nc1ncc(-c2cccc(C(=O)NCc3c(F)ccc(F)c3F)c2)nc1C(=O)N[C@H]1CCCNC1 [Example 1004, 3-amino-N-[(3S)-piperidin-3-yl]-6-[3-({[(2,3,6-trifluorophenyl)methyl]amino}carbonyl)phenyl]pyrazine-2-carboxamide] |  |  | IC50 [1]: < 50 nM
COC(=O)c1ccc(CNC(=O)c2cccc(-c3cnc(N)c(C(=O)N[C@H]4CCCNC4)n3)c2)cc1 [Example 869, methyl 4-[({[3-(5-amino-6-{[(3S)-piperidin-3-ylamino]carbonyl}pyrazin-2-yl)phenyl]carbonyl}amino)methyl]benzoate] |  |  | IC50 [1]: < 50 nM
COc1ccc(N/N=C(\C)c2nc(-c3cccc(C(=O)NCc4ccccc4)c3)cnc2N)cc1 [Example 599, 3-(5-amino-6-{(1E)-N-[4-(methyloxy)phenyl]ethanehydrazonoyl}pyrazin-2-yl)-N-(phenylmethyl)benzamide] |  | 1000 to 10000 nM | 
CNC(=O)c1nc(-c2cccc(CNC(=O)c3cc(F)ccc3F)c2)cnc1N [Example 310, 3-amino-6-[3-({[(2,5-difluorophenyl)carbonyl]amino}methyl)phenyl]-N-methylpyrazine-2-carboxamide] | 50 to 1000 nM |  | 
CC(C)(C)c1ccc(CNC(=O)c2cccc(-c3cnc(N)c(C(=O)N[C@H]4CCCNC4)n3)c2)cc1 [Example 950, 3-amino-6-{3-[({[4-(1,1-dimethylethyl)phenyl]methyl}amino)carbonyl]phenyl}-N-[(3S)-piperidin-3-yl]pyrazine-2-carboxamide] |  |  | IC50 [1]: < 50 nM
CNC(=O)c1nc(-c2cccc(C(=O)NCC3CCCN3C(=O)OC(C)(C)C)c2)cnc1N (stereo not shown) [Example 365, 1,1-dimethylethyl 2-({[(3-{5-amino-6-[(methylamino)carbonyl]pyrazin-2-yl}phenyl)carbonyl]amino}methyl)pyrrolidine-1-carboxylate] | 1000 to 10000 nM |  | 
CNC(=O)c1nc(-c2cccc(C(=O)NCc3c(OC)cccc3OC)c2)cnc1N [Example 249, 3-amino-6-{3-[({[2,6-bis(methyloxy)phenyl]methyl}amino)carbonyl]phenyl}-N-methylpyrazine-2-carboxamide] | 1000 to 10000 nM |  | 

Second part, led by results:

IC50 | IC50 (Table 11, Chk1 only) | Structure (SMILES) | other results
1000 to 10000 nM |  | CNC(=O)c1nc(-c2cccc(C(=O)N3CCN(Cc4ccccc4)CC3)c2)cnc1N [Example 117, 3-amino-N-methyl-6-(3-{[4-(phenylmethyl)piperazin-1-yl]carbonyl}phenyl)pyrazine-2-carboxamide] | 
1000 to 10000 nM |  | CC[C@@H](NC(=O)c1cccc(-c2cnc(N)c(C(=O)NC)n2)c1)c1ccccc1 [Example 146, 3-amino-N-methyl-6-[3-({[(1R)-1-phenylpropyl]amino}carbonyl)phenyl]pyrazine-2-carboxamide] | 
 | 1000 to 10000 nM | CC(C)(C)OC(=O)N1CC[C@H](NC(=O)c2nc(-c3cccc(C(=O)NCc4ccccn4)c3)cnc2N)C1 [Example 757, 1,1-dimethylethyl (3S)-3-({[3-amino-6-(3-{[(pyridin-2-ylmethyl)amino]carbonyl}phenyl)pyrazin-2-yl]carbonyl}amino)pyrrolidine-1-carboxylate] | 
 | 50 to 1000 nM | CC(C)(C)OC(=O)N1CCC[C@H](NC(=O)c2nc(-c3cccc(C(=O)N[C@H]4CCc5ccccc54)c3)cnc2N)C1 [Example 776, 1,1-dimethylethyl (3S)-3-({[3-amino-6-(3-{[(1S)-2,3-dihydro-1H-inden-1-ylamino]carbonyl}phenyl)pyrazin-2-yl]carbonyl}amino)piperidine-1-carboxylate] | 
50 to 1000 nM |  | CNC(=O)c1nc(-c2cccc(NC(=O)Nc3ccc(OC)cc3)c2)cnc1N [Example 90, 3-amino-N-methyl-6-{3-[({[4-(methyloxy)phenyl]amino}carbonyl)amino]phenyl}pyrazine-2-carboxamide] | 
 | 50 to 1000 nM | Nc1ncc(-c2cccc(CO)c2)nc1-c1nc(C2CCNC2)n[nH]1 (stereo not shown) [Example 643, {3-[5-amino-6-(3-pyrrolidin-3-yl-1H-1,2,4-triazol-5-yl)pyrazin-2-yl]phenyl}methanol] | 
50 to 1000 nM |  | CNC(=O)c1nc(-c2cccc(C(=O)NCc3cccc(OC)c3OC)c2)cnc1N [Example 113, 3-amino-6-{3-[({[2,3-bis(methyloxy)phenyl]methyl}amino)carbonyl]phenyl}-N-methylpyrazine-2-carboxamide] | 
50 to 1000 nM |  | CNC(=O)c1nc(-c2cccc(C(=O)NCc3cccc(Oc4ccccc4)c3)c2)cnc1N [Example 189, 3-amino-N-methyl-6-{3-[({[3-(phenyloxy)phenyl]methyl}amino)carbonyl]phenyl}pyrazine-2-carboxamide] | 
 | ≥ 10000 nM | CCNc1ncc(-c2cccc(C(=O)N[C@H]3CCc4ccccc43)c2)nc1C(=O)N[C@H]1CCN(CC)C1 [Example 707, 6-(3-{[(1S)-2,3-dihydro-1H-inden-1-ylamino]carbonyl}phenyl)-3-(ethylamino)-N-[(3S)-1-ethylpyrrolidin-3-yl]pyrazine-2-carboxamide] | 
 | 50 to 1000 nM | Nc1ncc(-c2cccc(CO)c2)nc1-c1nc(-c2cccs2)n[nH]1 [Example 583, (3-{5-amino-6-[3-(2-thienyl)-1H-1,2,4-triazol-5-yl]pyrazin-2-yl}phenyl)methanol] | 
50 to 1000 nM |  | CNC(=O)c1nc(-c2cccc(C(=O)NCC3CCCN3Cc3ccccc3)c2)cnc1N (stereo not shown) [Example 385, 3-amino-N-methyl-6-{3-[({[1-(phenylmethyl)pyrrolidin-2-yl]methyl}amino)carbonyl]phenyl}pyrazine-2-carboxamide] | 
 | 1000 to 10000 nM | Nc1ncc(-c2cccc(C(=O)NCc3ccccc3)c2)nc1/C=N/O [Example 681, 3-{5-amino-6-[(E)-(hydroxyimino)methyl]pyrazin-2-yl}-N-(phenylmethyl)benzamide] | 
 | 50 to 1000 nM | CNC(=O)c1nc(-c2cccc(CNC3CCc4c(F)cc(Br)cc43)c2)cnc1N (stereo not shown) [Example 470, 3-amino-6-(3-{[(6-bromo-4-fluoro-2,3-dihydro-1H-inden-1-yl)amino]methyl}phenyl)-N-methylpyrazine-2-carboxamide] | 
 | 1000 to 10000 nM | CNC(=O)c1nc(-c2cccc(CNC3c4ccccc4-c4ccccc43)c2)cnc1N [Example 447, 3-amino-6-{3-[(9H-fluoren-9-ylamino)methyl]phenyl}-N-methylpyrazine-2-carboxamide] | 
